One data set deals with PfATC (Plasmodium falciparum, UniProt A0A5K1K910). In words: biochemical. Conditions: for pIC50: in vitro activity assay, PfATC 50 nM, 2 mM CP, 1 mM aspartate, read-out: PfATC IC50. As for the experimental part: Following washing with Lysis buffer
Excess imidazole was removed and the His-tag was cleaved
400Then, the sample was loaded onto a 5 ml HiTrap SP HP column (GE Healthcare, USA) and
410PfATC activity assay. Enzymatic reactions were performed in a total volume of 150 µL in 50 mM
Small-molecule dose-response curves were
The reactions were initiated by adding CP and quenched after 10 min with
After plates were sealed with transparent sealing
420tape to prevent evaporation and incubated overnight in the dark place at room temperature. After
Analyses were performed using
The enzymatic assay was performed as described herein above for
Briefly, the reaction was carried out at room
The reaction was initiated by
Then the plate was covered by sealing
430tape and kept in dark place at room temperature and then heated to 95 °C for 15min in dark and kept

Another data set deals with normal lymphocytes. In words: Human cell line experiments, AlamarBlue, normal lymphocytes. The format is cell-based. Conditions: for pEC50: Hs normal lymphocytes, 72 hours, read-out: EC50 against normal lymphocytes; for cytotoxicity against cultured human lymphocytes: at 100 μM. Here is the method:
page 4: […] 418one in 50% (v/v) sulfuric acid) and one volume of 2,3-Butanedione monoxime (80 mM 2,3- 419Butanedione monoxime in 5% (v/v) acetic acid). After plates were sealed with transparent sealing 420tape to prevent evaporation and incubated overnight in the dark place at room temperature. After 421incubation, the plates were heated at 95 °C for 15 min in dark place, and kept for 30 min before 422measuring at 466 nm suing a Synergy H1 Hybrid Reader (BioTek). Analyses were performed using 423Microsoft Excel and Graph Pad Prism. 424HsATC activity assay. The enzymatic assay was performed as described herein above for 425enzymatic assay of PfATC with minor modifications. Briefly, the reaction was carried out at room 426temperature in a total volume of 150 μl of 10 mM L-aspartate and 5 mM carbamoyl phosphate 427saturated substrate solution in 50 mM Tris-Acetate buffer pH 8.3. hsATC was pre-incubated with 428inhibitor and L-Asp for 10 min at room temperature on a shaker. The reaction was initiated by 429adding CP and stopped after 5 min with […] color mix. Then the plate was covered by sealing 430tape and kept in dark place at room temperature and then heated to 95 °C for 15min in dark and kept 431the plate in the dark for another 30 min before measuring the absorbance at 466 nm suing a Synergy 432H1 Hybrid Reader (BioTek). Analyses were performed using Microsoft Excel and Graph Pad 433Prism. 434Human cell line experiments. The cell lines A375 (melanoma), H1299 (lungca), MCF7 435(breastca), REC-1 (mantel cell lymphoma, SUDHL2 (diffuse large B-cell lymphoma) and normal 436lymphocytes (obtained from tonsils) were cultured in RPMI 1640 (Lonza BioWhittaker, 437Walkersville, MD, USA) with 10% fetal bovine serum (FBS; HyClone Thermo Scientific, 438Waltham, MA, USA). Cells were plated in 96-wells plates and incubated with increasing 439concentrations of compounds for 72 hours as indicated. All experiments were performed in page 5: 440triplicate. AlamarBlue (Thermo Fisher Scientific, Waltham, MA USA) was added eight hours prior 441to read-out (extinction 560nm, emission 590nm). […] A freshly prepared protein 443solution at a concentration of 10 mg ml -1 and immediately used in crystallization trials. The 444screening for crystallization conditions for PfATC was performed using a high-through 445crystallization robot (Gryphon, Art Robbins) against commercially available sparse-matrix 446screening kits (JCSG plus and PACT premier; Molecular Dimensions Ltd.). All experiments were 447performed at 293 K using the sitting drop vapor diffusion technique in 96 well MRC2 plates 448(Molecular Dimensions Ltd.). Equal volumes (0.2 μL) of protein solution and crystallization 449reagent were equilibrated against 50 μL of reservoir solution. Medium size single crystals appeared 450overnight in various conditions containing PEG3350/4000. The apo-crystals were soaked for 10 […] 452the solution plus 20% glycerol, flash-cooled and stored in liquid nitrogen. The flashed cooled 453crystals was shipped to […], Deutsches Elektronen-Synchrotron DESY Beamline P11. […] The purified PfATC […] 457stocks in 100% DMSO) at a molar ratio of 1:5. The mixture was incubated at 20 °C for 40 minutes, 458then centrifugation was performed to remove the precipitate. The supernatant was immediately 459used in crystallization trials. The crystallization reagent were the same as apo crystallization […] The crystals were flash- 461cooled and stored in liquid nitrogen, and was shipped to […], Deutsches Elektronen- 462Synchrotron DESY Beamline P11.
On the technique in general: The colour change of resazurin is a common sign of viable cells or microbes.

pEC50, pIC50: −log10 of the molar value. Like-named read-outs stand apart in the source and are kept apart here.

The term pIC50 denotes the negative decadic logarithm of the IC50, by convention in mol/L. Usually pEC50 stands for the EC50 on a negative log10 scale, so that one unit is a factor of ten.

Chain of PfATC (A0A5K1K910 entry or part of it): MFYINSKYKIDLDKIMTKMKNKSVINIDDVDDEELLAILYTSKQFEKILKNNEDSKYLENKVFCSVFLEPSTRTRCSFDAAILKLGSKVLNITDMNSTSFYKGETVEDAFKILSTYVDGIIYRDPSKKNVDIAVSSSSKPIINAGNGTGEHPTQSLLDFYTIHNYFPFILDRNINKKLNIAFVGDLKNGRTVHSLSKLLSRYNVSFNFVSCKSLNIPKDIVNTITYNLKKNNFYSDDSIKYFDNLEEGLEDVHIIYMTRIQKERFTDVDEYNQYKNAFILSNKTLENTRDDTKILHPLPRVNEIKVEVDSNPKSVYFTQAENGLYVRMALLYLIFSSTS

For the compound `CC(C)(C)OC(=O)Nc1sc(-c2ccccc2)cc1C(=O)NCCc1ccccc1` [BDA-04], on PfATC, the pIC50 was 7.11. The mechanism of inhibition result on PfATC (with CP and Asp, 0, 200 and 400 nM BDA-04, one substrate fixed (2 mM CP or 1 mM Asp)) is listed as “noncompetitive inhibitor”. Moreover, the pEC50 in the data set with normal lymphocytes (Homo sapiens, Lymphocyte) was about 3.00. Further, the “cytotoxicity against cultured human lymphocytes” value in the data set with normal lymphocytes was “no cytotoxicity”.
As to `CC(C)(C)OC(=O)Nc1sc(-c2ccccc2)cc1C(=O)NCCc1ccc(O)cc1` [BDA-11], the pIC50 on PfATC is 7.34. Further, in the data set with normal lymphocytes, the pEC50 was 3.12.
With `CC(C)(C)OC(=O)Nc1sc(-c2ccccc2)cc1C(=O)NCCO` [BDA-14], the pIC50 at PfATC is 6.94. Also, in the data set on normal lymphocytes, the pEC50 is under 3.00 and the “cytotoxicity against cultured human lymphocytes” value was “no cytotoxicity”.
Consider `COc1cccc(CCNC(=O)c2cc(-c3ccccc3)sc2NC(=O)OC(C)(C)C)c1` [BDA-24], for which the pIC50 at PfATC was 6.99. Besides, in the data set on normal lymphocytes, the pEC50 is 3.04.

These data come from paper PMC9585585, “Discovery of Small-Molecule Allosteric Inhibitors of PfATC as Antimalarials” (Journal of the American Chemical Society, 2022).
